Test results from article PMC6981391, “The Selective Class IIa Histone Deacetylase Inhibitor TMP195 Resensitizes ABCB1- and ABCG2-Overexpressing Multidrug-Resistant Cancer Cells to Cytotoxic Anticancer Drugs” (International Journal of Molecular Sciences, 2019).

Tests used:
[1] = molecular target: T1, ABCG2 (Homo sapiens, UniProt Q9UNQ0); test: biochemical
T1 sequence (Q9UNQ0 1-655): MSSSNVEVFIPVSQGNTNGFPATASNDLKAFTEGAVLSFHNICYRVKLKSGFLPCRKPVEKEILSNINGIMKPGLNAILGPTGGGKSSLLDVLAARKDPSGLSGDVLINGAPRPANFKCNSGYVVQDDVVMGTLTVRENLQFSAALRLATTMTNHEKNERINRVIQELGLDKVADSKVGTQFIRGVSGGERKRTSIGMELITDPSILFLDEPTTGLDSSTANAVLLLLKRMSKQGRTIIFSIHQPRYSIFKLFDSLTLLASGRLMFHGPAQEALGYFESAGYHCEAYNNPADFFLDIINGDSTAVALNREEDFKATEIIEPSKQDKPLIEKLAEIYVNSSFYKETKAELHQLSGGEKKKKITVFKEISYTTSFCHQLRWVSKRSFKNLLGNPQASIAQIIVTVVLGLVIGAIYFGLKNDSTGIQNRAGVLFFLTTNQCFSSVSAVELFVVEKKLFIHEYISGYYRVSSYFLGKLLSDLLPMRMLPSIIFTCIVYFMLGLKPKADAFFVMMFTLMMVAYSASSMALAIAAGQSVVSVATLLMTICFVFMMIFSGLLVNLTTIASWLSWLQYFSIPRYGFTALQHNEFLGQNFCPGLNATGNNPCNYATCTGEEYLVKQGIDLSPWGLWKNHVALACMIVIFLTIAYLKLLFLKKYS

[2] = molecular target: T2, ABCB1 (Homo sapiens, UniProt P08183); test: stimulation of vanadate-sensitive ATPase activity in membrane vesicles (endpoint Pi assay); also inhibits calcein-AM efflux in MDR19-HEK293 and KB-V-1 cells; format: biochemical
T2 construct: membrane vesicles from High-Five insect cells infected with recombinant baculovirus containing ABCB1
T2 sequence (P08183 whole entry): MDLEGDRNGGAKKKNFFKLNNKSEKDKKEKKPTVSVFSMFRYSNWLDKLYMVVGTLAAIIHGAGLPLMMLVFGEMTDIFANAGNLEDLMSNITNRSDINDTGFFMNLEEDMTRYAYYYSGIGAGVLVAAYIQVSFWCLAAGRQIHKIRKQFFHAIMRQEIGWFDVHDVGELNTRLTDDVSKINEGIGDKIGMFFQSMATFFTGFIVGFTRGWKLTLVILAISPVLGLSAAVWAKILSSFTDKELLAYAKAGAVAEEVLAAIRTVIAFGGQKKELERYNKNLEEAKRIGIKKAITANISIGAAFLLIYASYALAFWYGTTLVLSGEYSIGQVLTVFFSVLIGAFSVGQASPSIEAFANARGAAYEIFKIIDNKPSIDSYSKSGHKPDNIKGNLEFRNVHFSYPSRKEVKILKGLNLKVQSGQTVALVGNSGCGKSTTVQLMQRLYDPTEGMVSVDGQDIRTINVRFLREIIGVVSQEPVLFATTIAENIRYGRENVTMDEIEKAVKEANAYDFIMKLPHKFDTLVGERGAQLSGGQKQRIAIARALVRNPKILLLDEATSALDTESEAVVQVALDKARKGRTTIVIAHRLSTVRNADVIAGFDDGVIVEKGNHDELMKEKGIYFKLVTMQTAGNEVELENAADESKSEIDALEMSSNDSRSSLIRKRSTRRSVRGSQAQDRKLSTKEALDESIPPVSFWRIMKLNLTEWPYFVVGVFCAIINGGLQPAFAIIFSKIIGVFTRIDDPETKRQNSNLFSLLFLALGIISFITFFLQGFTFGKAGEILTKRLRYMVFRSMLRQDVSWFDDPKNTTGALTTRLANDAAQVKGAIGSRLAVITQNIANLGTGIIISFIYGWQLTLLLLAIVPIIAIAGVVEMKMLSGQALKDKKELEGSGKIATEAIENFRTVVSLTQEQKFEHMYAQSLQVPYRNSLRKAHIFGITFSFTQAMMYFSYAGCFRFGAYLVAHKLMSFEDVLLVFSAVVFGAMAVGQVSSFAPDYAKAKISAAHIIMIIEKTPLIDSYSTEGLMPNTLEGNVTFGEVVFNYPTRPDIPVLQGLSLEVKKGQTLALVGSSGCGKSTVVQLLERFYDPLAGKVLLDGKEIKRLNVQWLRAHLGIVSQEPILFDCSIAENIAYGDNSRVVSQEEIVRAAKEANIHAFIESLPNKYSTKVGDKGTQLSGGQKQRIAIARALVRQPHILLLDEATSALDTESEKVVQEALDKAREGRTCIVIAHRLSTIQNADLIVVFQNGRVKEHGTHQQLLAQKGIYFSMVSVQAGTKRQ

`CC(C)(CNC(=O)c1cccc(-c2noc(C(F)(F)F)n2)c1)c1coc(-c2ccccc2)n1` [TMP195] showed an EC50 [1] of ~400 nM and an EC50 [2] of ~2000 nM.
